How the values were obtained:
[1] = molecular target: MRCKb/CDC42BPB (Homo sapiens, UniProt Q9Y5S2); experiment: biochemical; settings: read-out: % enzyme activity, 1 μM; Run 1, Run 2
[2] = molecular target: T1, GRK2 (Homo sapiens, UniProt P25098); settings: 1 μM; Run 1, Run 2
T1 sequence (P25098 1-689): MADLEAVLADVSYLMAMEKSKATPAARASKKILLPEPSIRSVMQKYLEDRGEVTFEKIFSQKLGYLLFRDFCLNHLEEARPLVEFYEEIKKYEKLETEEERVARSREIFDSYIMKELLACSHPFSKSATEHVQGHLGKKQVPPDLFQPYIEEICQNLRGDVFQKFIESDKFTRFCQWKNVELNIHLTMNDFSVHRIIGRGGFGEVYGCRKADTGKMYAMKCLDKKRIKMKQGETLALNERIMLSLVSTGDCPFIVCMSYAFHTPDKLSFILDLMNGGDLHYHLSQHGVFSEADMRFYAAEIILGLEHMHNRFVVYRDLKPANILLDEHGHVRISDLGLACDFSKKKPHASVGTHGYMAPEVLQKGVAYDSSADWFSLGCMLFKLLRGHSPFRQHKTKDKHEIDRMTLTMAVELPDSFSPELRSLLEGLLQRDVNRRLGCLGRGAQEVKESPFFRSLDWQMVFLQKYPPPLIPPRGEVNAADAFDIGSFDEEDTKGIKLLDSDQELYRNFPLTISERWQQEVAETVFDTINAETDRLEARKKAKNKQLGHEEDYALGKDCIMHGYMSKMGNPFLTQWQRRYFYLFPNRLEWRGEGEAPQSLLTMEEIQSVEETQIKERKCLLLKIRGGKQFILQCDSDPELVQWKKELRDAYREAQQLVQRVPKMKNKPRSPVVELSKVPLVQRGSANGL

[3] = molecular target: T2, ITK (Homo sapiens, UniProt Q08881); experiment: biochemical; settings: read-out: % enzyme activity, 1 μM; Run 1, Run 2
T2 sequence (Q08881 1-620): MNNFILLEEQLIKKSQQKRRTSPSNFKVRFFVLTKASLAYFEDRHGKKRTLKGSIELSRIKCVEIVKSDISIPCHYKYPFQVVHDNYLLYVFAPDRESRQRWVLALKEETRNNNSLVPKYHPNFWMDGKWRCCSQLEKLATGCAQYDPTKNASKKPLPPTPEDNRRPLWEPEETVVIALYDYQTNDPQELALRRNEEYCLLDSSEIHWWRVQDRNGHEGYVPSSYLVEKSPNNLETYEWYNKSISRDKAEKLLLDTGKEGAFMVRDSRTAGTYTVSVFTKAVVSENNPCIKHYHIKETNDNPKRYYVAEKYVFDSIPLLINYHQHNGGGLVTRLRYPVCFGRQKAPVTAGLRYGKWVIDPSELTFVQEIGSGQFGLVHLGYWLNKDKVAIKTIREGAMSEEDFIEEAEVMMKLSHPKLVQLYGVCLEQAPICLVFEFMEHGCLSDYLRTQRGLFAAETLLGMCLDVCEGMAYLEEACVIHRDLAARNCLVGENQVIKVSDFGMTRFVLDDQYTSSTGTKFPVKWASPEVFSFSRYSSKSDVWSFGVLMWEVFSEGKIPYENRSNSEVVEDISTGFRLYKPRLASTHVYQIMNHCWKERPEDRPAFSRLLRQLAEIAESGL

[4] = molecular target: T3, LATS2 (Homo sapiens, UniProt Q9NRM7); settings: 1 μM; Run 1, Run 2
T3 sequence (Q9NRM7 1-1088): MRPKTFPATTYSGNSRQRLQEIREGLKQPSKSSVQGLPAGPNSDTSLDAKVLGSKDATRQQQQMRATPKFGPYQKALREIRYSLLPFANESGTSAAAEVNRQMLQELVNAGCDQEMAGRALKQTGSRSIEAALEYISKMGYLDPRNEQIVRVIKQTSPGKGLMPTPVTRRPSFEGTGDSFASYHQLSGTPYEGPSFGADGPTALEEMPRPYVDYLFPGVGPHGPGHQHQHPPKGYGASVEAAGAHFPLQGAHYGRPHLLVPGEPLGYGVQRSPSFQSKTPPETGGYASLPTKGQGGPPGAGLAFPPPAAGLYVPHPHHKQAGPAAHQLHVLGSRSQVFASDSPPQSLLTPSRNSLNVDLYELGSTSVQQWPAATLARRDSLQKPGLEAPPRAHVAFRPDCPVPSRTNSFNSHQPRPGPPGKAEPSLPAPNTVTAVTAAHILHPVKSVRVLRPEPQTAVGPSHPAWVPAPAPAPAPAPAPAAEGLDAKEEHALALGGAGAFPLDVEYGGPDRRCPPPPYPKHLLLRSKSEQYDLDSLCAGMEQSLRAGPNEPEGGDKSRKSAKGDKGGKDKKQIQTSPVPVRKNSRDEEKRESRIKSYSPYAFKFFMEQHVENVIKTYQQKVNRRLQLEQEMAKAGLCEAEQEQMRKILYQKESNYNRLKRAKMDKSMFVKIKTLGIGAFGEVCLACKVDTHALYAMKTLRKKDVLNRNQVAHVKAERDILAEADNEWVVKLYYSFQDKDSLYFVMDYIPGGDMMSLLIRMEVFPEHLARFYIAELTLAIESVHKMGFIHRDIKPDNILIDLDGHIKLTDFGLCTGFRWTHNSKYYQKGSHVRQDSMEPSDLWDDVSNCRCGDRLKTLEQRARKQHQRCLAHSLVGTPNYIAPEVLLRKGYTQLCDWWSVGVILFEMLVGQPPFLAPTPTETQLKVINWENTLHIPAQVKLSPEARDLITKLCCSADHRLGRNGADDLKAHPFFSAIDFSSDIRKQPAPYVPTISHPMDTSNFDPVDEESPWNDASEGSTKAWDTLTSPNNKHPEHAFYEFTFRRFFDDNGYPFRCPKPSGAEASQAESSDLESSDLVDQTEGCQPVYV

[5] = molecular target: TESK2 (Homo sapiens, UniProt Q96S53); experiment: biochemical; settings: read-out: % enzyme activity, 1 μM; Run 1, Run 2
Sequence of TESK2 (Q96S53 whole entry): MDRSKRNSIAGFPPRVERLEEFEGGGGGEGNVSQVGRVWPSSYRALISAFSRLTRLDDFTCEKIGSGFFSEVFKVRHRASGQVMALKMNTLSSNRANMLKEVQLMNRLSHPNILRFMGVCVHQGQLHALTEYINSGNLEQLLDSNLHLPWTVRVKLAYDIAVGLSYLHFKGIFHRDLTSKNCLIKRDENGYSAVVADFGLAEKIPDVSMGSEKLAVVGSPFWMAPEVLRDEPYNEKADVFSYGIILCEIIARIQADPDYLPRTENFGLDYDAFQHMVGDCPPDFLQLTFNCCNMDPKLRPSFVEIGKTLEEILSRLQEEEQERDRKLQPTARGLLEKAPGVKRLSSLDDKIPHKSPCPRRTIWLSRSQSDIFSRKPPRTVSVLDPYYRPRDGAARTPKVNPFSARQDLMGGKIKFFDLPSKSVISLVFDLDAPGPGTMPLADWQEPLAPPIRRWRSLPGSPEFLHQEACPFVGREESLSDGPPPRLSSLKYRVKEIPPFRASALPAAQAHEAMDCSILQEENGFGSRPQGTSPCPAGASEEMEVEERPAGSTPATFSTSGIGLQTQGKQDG

Sequence of MRCKb/CDC42BPB (Q9Y5S2 whole entry): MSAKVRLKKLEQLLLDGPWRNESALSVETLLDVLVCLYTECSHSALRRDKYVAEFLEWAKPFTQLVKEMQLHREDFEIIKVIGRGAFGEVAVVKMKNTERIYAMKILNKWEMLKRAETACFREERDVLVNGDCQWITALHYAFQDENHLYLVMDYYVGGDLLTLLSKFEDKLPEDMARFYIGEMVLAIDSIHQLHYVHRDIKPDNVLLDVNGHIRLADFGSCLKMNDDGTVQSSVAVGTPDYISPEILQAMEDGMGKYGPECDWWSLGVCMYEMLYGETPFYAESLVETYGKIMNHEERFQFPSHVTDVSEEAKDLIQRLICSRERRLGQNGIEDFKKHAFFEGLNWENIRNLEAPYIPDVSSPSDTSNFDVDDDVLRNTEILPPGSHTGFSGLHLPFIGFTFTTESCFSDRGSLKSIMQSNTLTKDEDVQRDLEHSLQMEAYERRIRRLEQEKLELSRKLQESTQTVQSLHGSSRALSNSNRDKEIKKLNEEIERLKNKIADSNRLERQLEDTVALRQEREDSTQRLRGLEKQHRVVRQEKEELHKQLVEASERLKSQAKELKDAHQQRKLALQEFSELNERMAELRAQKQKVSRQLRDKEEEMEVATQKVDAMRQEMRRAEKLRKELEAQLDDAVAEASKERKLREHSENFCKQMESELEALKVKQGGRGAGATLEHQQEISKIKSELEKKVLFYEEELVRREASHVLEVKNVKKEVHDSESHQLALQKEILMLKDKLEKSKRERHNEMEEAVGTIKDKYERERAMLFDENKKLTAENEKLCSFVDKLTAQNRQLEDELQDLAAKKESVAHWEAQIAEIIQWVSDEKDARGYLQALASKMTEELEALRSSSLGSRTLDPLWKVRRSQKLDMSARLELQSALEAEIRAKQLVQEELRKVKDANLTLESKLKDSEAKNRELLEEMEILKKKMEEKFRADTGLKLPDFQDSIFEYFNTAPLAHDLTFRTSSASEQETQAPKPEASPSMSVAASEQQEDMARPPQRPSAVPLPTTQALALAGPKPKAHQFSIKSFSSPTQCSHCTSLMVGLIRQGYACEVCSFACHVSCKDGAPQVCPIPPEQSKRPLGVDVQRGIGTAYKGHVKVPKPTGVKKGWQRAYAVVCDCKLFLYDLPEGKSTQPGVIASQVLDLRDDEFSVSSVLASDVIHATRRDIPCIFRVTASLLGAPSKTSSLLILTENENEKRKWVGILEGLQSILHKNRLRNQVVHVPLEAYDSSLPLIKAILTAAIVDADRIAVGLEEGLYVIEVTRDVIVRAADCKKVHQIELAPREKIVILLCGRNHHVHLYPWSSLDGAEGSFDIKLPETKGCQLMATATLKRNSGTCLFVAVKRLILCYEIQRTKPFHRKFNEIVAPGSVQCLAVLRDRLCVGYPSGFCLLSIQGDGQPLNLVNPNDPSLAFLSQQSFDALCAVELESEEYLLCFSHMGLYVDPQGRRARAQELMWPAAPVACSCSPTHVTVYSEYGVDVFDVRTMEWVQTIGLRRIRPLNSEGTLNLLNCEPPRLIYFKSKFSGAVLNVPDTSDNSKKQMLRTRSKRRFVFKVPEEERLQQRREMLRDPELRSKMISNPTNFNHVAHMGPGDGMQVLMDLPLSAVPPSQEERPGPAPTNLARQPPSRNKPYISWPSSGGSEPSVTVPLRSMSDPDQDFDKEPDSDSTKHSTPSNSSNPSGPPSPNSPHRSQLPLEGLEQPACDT

`COc1cc(-c2cncc(-c3ccc(N4CCN(C)CC4)cc3)c2C)cc(F)c1C(N)=O` [Compound 26a, 2-Fluoro-6-methoxy-4-(4-methyl-5-(4-(4-methylpiperazin-1-yl)phenyl)pyridin-3-yl)benzamide] was tested, and the remaining activity at 1 µM [1] was 94.6%, the “% enzyme activity” value [2] was 103.58% and the remaining activity at 1 µM [3] was 106%. The “% enzyme activity” value [4] was 104.67% and the remaining activity at 1 µM [5] was 93.9%.

For `COc1cc(-c2cncc(-c3ccc(N4C[C@@H](C)N(C)[C@@H](C)C4)cc3)c2C)cc(F)c1C(N)=O` [Compound 26c, 2-Fluoro-6-methoxy-4-(4-methyl-5-(4-((3R,5S)-3,4,5-trimethylpiperazin-1-yl)phenyl)pyridin-3-yl)benzamide], the remaining activity at 1 µM [1] was 99.7%, the “% enzyme activity” value [2] was 99.17% and the remaining activity at 1 µM [3] was 102%. The “% enzyme activity” value [4] was 100.36% and the remaining activity at 1 µM [5] was 92.2%.
